Assay results: patent publication US7736899B1, “Cells and method for producing proteins comprising an unconventional amino acid” (priority 1998, dated 2010)

Tests used:
Assay type in all cases: cell-based, E. coli
[1] = tested on: strain β5274 (thyA:Ile146); assay: Phenotypic suppression by cysteine of thyA:Ile146 strain; settings: 0.1 mM
Protocol: The plasmid pTS2 thus obtained propagates the thyA:Ile146 allele in which position 146 occupied in the wild-type thyA gene by the UGC codon of cysteine is occupied by the AUA codon of isoleucine. The strain which propagates the thyA:Ile146 plasmid allele, β5274, is shown to require the nutritional supply of thymine, of thymidine or of cysteine in excess, as was the strain β5366. The phenotypic suppression of the strain β5274 by the cysteine is abolished with 0.1 mM of isoleucine, as was that of the strain β5366 with valine. Thus, it is as though the isoleucyl-tRNA synthetase is capable of forming erroneous Cys-tRNAs^Ile in the presence of an excess of cysteine, and that this erroneous formation is prevented by the presence of an excess of isoleucine.

[2] = tested on: strain β8144 (mutated valS); assay: Zone of growth inhibition on Petri dishes, sensitivity to noncanonical amino acids; settings: 24 h at 30° C.
Protocol: (§1) The strains β5455, β8144 and β8146 are tested for their sensitivity to artificial amino acids which show steric resemblance to valine. The test is carried out on dishes containing glucose of MS mineral medium supplemented with thymidine. The cells are cultured in aerobic medium (glucose MS mineral medium, 0.3 mM thymidine) for 24 h at 30° C. and diluted to 1/250 in MS mineral medium. 0.5 ml of this cell suspension is plated out onto Petri dishes containing 25 ml of glucose MS mineral medium. A well is then hollowed out at the center of the dish and filled with 0.1 ml of an amino acid solution:
(§2) The dishes are then incubated for 24 h at 30° C. and the possible appearance on the dishes of a zone of inhibition around the well is recorded. The diameters of the limited zones of growth inhibition on Petri dishes are measured: […]

[3] = tested on: strain β8146 (mutated valS); assay: as above; settings: 24 h at 30° C.
Protocol: as §1, §2

[4] = tested on: strain β5455 (valS T222P); assay: as above; settings: 24 h at 30° C.
Protocol: as §1, §2

[5] = tested on: strain β5366 (wild-type valS allele); assay: as above; settings: 24 h at 30° C.; for effect on growth (zone of inhibition): central well with 0.1 ml of 100 mM amino acid solution
[6] = tested on: modified strain β8146; assay: Phenotypic suppression by metabolic precursors of cysteine (growth factor replacement)
From the text: (§3) The nutrient requirement for cysteine of the modified strains β8144 and β8146 is exploited in order to characterize metabolic precursors which may substitute for cysteine in the culture medium without giving rise to degradation by oxidation. […] However, the addition of none of these substances allows growth of the strain β1308 carrying a chromosomal deletion of the thyA gene of thymidylate synthase, thus excluding their contamination with traces of thymine or of thymidine.

[7] = tested on: modified strain β8144; assay: as above
From the text: as §3

[8] = tested on: strain β5366 (thyA:Val146); assay: Growth on cysteine diffusion gradient in Petri dishes
From the text: (§4) The plasmid pTS1 thus obtained propagates the thyA:Val146 allele, in which position 146 occupied in the wild-type thyA gene by the UGC codon of cysteine is occupied by the GUA codon of valine. The plasmid pTS1 is introduced by transformation, carried out according to the method of Sambrook et al. (1989), into the E. coli K12 ΔthyA strain, β1308 (Lemeignan et al., 1993), in which the chromosomal thymidylate synthase gene, thyA, is deleted. The transformed strain carrying the thyA:Val146 plasmid allele, β5366, is shown to be incapable of growing without thymine or thymidine being added to the culture medium, as is the strain β1308 from which it derives. […] Thus, it is as though the cysteine can infiltrate into the valyl-tRNA synthetase active site to form erroneous Cys-tRNAs^Val capable of correcting the substitution of the cysteine in the thymidylate synthase active site, with valine. The excess of valine would prevent the formation of these erroneous Cys-tRNAs^Val.

[9] = tested on: twelve clones derived from strain β5366; assay: Growth factor test of clones from serial culture on plates with nutrient factors; settings: glucose MS mineral medium plates
Protocol: The strain β5366 carrying the thyA:Val146 missense allele on the plasmid pTS1 is cultured in glucose MS mineral medium (2 g/l, Richaud et al., 1993) supplemented with 0.3 mM of thymidine, for 24 h at 30° C. in aerobiosis. The cells are then washed twice with deoxygenated MS mineral medium. A deoxygenated nutrient medium containing 10 ml of glucose MS mineral medium supplemented with 1.5 mM of cysteine is inoculated at 1/100 using the washed cells. The cells are then cultured in anaerobiosis for 24 h at 30° C., and a fresh tube containing 10 ml of deoxygenated cysteine glucose MS mineral medium is inoculated with a 1/100 dilution of the previous culture in the stationary phase. This procedure is repeated 26 times. At the end of this serial propagation, 12 clones from the liquid culture are isolated on plates containing thymidine (0.3 mM) glucose (2 g/l) MS mineral medium, in aerobiosis, and stored in suspension in the same liquid medium at −80° C. The twelve clones are tested on plates containing glucose MS mineral medium supplemented with nutrient factors. All these clones are shown to require thymine or thymidine as a growth factor, unless cysteine is present in the culture medium, at a concentration of at least 1.5 mM.

[10] = tested on: strain β1308 (ΔthyA); assay: Growth on cysteine diffusion gradient in Petri dishes; settings: 30° C., glucose MS mineral medium, central well 0.1 ml of 400 mM L-cysteine
From the text: as §4

[11] = central well with 0.1 ml of 50 mM amino acid solution
[12] = central well with 0.1 ml of 100 mM amino acid solution

## CC[C@H](C)[C@H](N)C(=O)O [isoleucine]
[1]
  effect on phenotypic suppression by cysteine: abolished

## CC(S)[C@H](N)C(=O)O (stereo partly drawn) [L-3-thiol-2-aminobutyrate]
[2]; [11]
  diameter of zone of growth inhibition: 4.0 cm
[3]; [11]
  diameter of zone of growth inhibition: 4.0 cm
[4]; [11]
  diameter of zone of growth inhibition: 4.6 cm
[5]; [11]
  diameter of zone of growth inhibition: 2.0 cm

## CSC[C@H](N)C(=O)O [S-methyl-L-cysteine]
[6]; 3 mM in culture medium
  replacement of cysteine as growth factor instead of thymidine or thymine: capable of replacing cysteine as a growth factor
[7]; 3 mM in culture medium
  replacement of cysteine as growth factor instead of thymidine or thymine: capable of replacing cysteine as a growth factor

## NC[C@H](N)C(=O)O [L-2,3-diaminopropionate]
[2]; [12]
  diameter of zone of growth inhibition: 2.7 cm
[3]; [12]
  diameter of zone of growth inhibition: 1.9 cm
[4]; [12]
  diameter of zone of growth inhibition: 2.3 cm
[5]
  effect on growth (zone of inhibition): no effect

## L-2-aminobutyrate
[2]; [12]
  diameter of zone of growth inhibition: 5.7 cm
[3]; [12]
  diameter of zone of growth inhibition: 6.7 cm
[4]; [12]
  diameter of zone of growth inhibition: 5.2 cm
[5]
  effect on growth (zone of inhibition): no effect

## CC(C)[C@H](N)C(=O)O [valine]
[8]; 0.1 mM added to the medium of the Petri dishes
  effect on growth on a cysteine gradient: abolishes the growth

## O=C(O)[C@@H]1CSCN1 [L-thiazolidine-4-carboxylic acid]
[6]; 2 mM in culture medium
  replacement of cysteine as growth factor instead of thymidine or thymine: capable of replacing cysteine as a growth factor
[7]; 2 mM in culture medium
  replacement of cysteine as growth factor instead of thymidine or thymine: capable of replacing cysteine as a growth factor

## NC(=O)SC[C@H](N)C(=O)O [S-carbamyl-L-cysteine]
[6]; 3 mM in culture medium
  replacement of cysteine as growth factor instead of thymidine or thymine: capable of replacing cysteine as a growth factor
[7]; 3 mM in culture medium
  replacement of cysteine as growth factor instead of thymidine or thymine: capable of replacing cysteine as a growth factor

## N[C@@H](CS)C(=O)O [L-cysteine]
[9]
  cysteine concentration that replaces thymine or thymidine as growth factor: at least 1.5 mM
[10]
  growth on cysteine diffusion gradient: no detectable growth
[8]; 30° C., glucose MS mineral medium, central well 0.1 ml of 400 mM L-cysteine
  growth on cysteine diffusion gradient: marginal growth

## CCC[C@H](N)C(=O)O [L-2-aminovalerate]
[2]; [12]
  diameter of zone of growth inhibition: 1.5 cm
[3]; [12]
  diameter of zone of growth inhibition: 6.7 cm
[4]; [12]
  diameter of zone of growth inhibition: 2.1 cm
[5]
  effect on growth (zone of inhibition): no effect
